The test system of the assay is P388 leukemia ip, CD2F1 mice, survival T/C. Briefly: NCI In Vivo Anticancer Drug Screen. Data for tumor model P388 Leukemia (intraperitoneal) in CD2F1 (CDF1) mice. The conditions noted are these: endpoint: median survival time, higher = longer survival. In outline: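 Mice carrying the transplanted tumor received test compound or vehicle. Survival was recorded in each group, and the value is the treated-group measurement divided by that of the vehicle-treated control group.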

The mark [1] stands for this setting: dose: 6.25 mg/kg/injection, schedule: Q01DX005 (ip), vehicle: Klucel (hydroxypropylcellulose) (HPC).
[2] abbreviates: dose: 12.5 mg/kg/injection, schedule: Q01DX005 (ip), vehicle: Klucel (hydroxypropylcellulose) (HPC).
Where [3] appears, read: dose: 100.0 mg/kg/injection, schedule: Q04DX003 (ip), vehicle: saline with Tween-80.
Where [4] appears, read: dose: 200.0 mg/kg/injection, schedule: Q04DX003 (ip), vehicle: saline with Tween-80.
Where [5] appears, read: dose: 50.0 mg/kg/injection, schedule: Q01DX005 (ip), vehicle: saline.
The mark [6] stands for this setting: dose: 100.0 mg/kg/injection, schedule: Q01DX005 (ip), vehicle: saline.
The mark [7] stands for this setting: dose: 50.0 mg/kg/injection, schedule: Q01DX005 (ip), vehicle: saline with Tween-80.
Where [8] appears, read: dose: 100.0 mg/kg/injection, schedule: Q01DX005 (ip), vehicle: saline with Tween-80.
Where [9] appears, read: dose: 200.0 mg/kg/injection, schedule: Q01DX005 (ip), vehicle: saline with Tween-80.
The mark [10] stands for this setting: dose: 50.0 mg/kg/injection, schedule: Q01DX009 (ip), vehicle: Klucel (hydroxypropylcellulose) (HPC).
The mark [11] stands for this setting: dose: 100.0 mg/kg/injection, schedule: Q01DX009 (ip), vehicle: Klucel (hydroxypropylcellulose) (HPC).
[12] abbreviates: dose: 200.0 mg/kg/injection, schedule: Q01DX009 (ip), vehicle: Klucel (hydroxypropylcellulose) (HPC).
Setting [13] is: dose: 50.0 mg/kg/injection, schedule: Q01DX005 (ip), vehicle: Klucel (hydroxypropylcellulose) (HPC).
Setting [14] is: dose: 100.0 mg/kg/injection, schedule: Q01DX005 (ip), vehicle: Klucel (hydroxypropylcellulose) (HPC).
[15] abbreviates: dose: 200.0 mg/kg/injection, schedule: Q01DX005 (ip), vehicle: Klucel (hydroxypropylcellulose) (HPC).
The mark [16] stands for this setting: dose: 12.5 mg/kg/injection, schedule: Q01DX005 (ip), vehicle: saline with Tween-80.
The mark [17] stands for this setting: dose: 25.0 mg/kg/injection, schedule: Q01DX005 (ip), vehicle: saline with Tween-80.

Where “and” joins values, the source holds several entries; their conditions need not be identical. Equal entries are not always repeated. Inconclusive results and toxic doses are left out. Peptide text beside a SMILES is read from it. * marks the point of attachment. Boc = CC(C)(C)OC(=O)*

For `COc1cc2ccnc(/C=N\O)c2cc1OC`, the T/C was 102 % of control (dose: 12.5 mg/kg/injection, schedule: Q01DX009 (ip), vehicle: distilled water + Tween-80); 116 % of control (dose: 25.0 mg/kg/injection, schedule: Q01DX009 (ip), vehicle: distilled water + Tween-80); 109 % of control (dose: 50.0 mg/kg/injection, schedule: Q01DX009 (ip), vehicle: distilled water + Tween-80); 102 % of control (dose: 100.0 mg/kg/injection, schedule: Q01DX009 (ip), vehicle: distilled water + Tween-80); 91 % of control (dose: 200.0 mg/kg/injection, schedule: Q01DX009 (ip), vehicle: distilled water + Tween-80); 93 % of control (dose: 400.0 mg/kg/injection, schedule: Q01DX009 (ip), vehicle: distilled water + Tween-80).
`O=C(Nc1ccc(NC2=NCCN2)cc1)c1ccc(C(=O)Nc2ccc(NC3=NCCN3)cc2)c([N+](=O)[O-])c1`: the T/C reads like this: (dose: 1.56 mg/kg/injection, schedule: Q01DX005 (ip), vehicle: Klucel (hydroxypropylcellulose) (HPC)) 116 % of control; under setting [1], 158 % of control; under setting [2], 158 % of control.
`OC(Cc1cnc2ccccc2n1)(C(F)(F)F)C(F)(F)F`: the T/C under setting [3] was 109 % of control; the T/C under setting [4] was 95 % of control; the T/C (dose: 400.0 mg/kg/injection, schedule: Q04DX003 (ip), vehicle: saline with Tween-80) is 90 % of control.
On to `Cn1c2ccccc2c2oc(-c3nn[nH]n3)cc(=O)c21`, for which the T/C by setting is: (dose: 60.0 mg/kg/injection, schedule: Q01DX005 (ip), vehicle: Klucel (hydroxypropylcellulose) (HPC)) 97 % of control; (dose: 120.0 mg/kg/injection, schedule: Q01DX005 (ip), vehicle: Klucel (hydroxypropylcellulose) (HPC)) 105 % of control; (dose: 240.0 mg/kg/injection, schedule: Q01DX005 (ip), vehicle: Klucel (hydroxypropylcellulose) (HPC)) 100 % of control.
In the case of `CC1=CC[N+](C)(C)C(C(N)=O)C1` (stereo not drawn), the T/C is, setting by setting: under setting [5], 108 % of control; under setting [6], 105 % of control.
For `CC(C)(SSC(C)(C)C1NC(=O)NC1=O)C1NC(=O)NC1=O` (stereo not drawn), the T/C reads like this: under setting [1], 102 % of control; under setting [2], 99 % of control; (dose: 25.0 mg/kg/injection, schedule: Q01DX005 (ip), vehicle: Klucel (hydroxypropylcellulose) (HPC)) 98 % of control.
`CC(=O)Oc1c2occc2cc2ccc(=O)oc12`: the T/C is 99 % of control under setting [7], 98 % of control under setting [8] and 100 % of control under setting [9].
Consider `C1OC1CN1CCN(CC2CO2)CC1` (stereo not drawn), for which the T/C was 124 % of control (dose: 4.0 mg/kg/injection, schedule: Q01DX009 (ip), vehicle: saline); 150 % of control (dose: 8.0 mg/kg/injection, schedule: Q01DX009 (ip), vehicle: saline); 196 % of control (dose: 16.0 mg/kg/injection, schedule: Q01DX009 (ip), vehicle: saline).
On to `Cc1ccccc1C1=NC2(CCCCC2)N=C1NN`, for which the T/C runs as follows: under setting [10], 104 % of control; under setting [11], 98 % of control; under setting [12], 91 % of control.
Consider `CCOP(=O)(OCC)C(=O)c1ccccc1`, for which the T/C reads like this: (dose: 60.0 mg/kg/injection, schedule: Q01DX005 (ip), vehicle: saline) 100 % of control; (dose: 120.0 mg/kg/injection, schedule: Q01DX005 (ip), vehicle: saline) 103 % of control; (dose: 240.0 mg/kg/injection, schedule: Q01DX005 (ip), vehicle: saline) 105 % of control.
For the compound `CCC(C)C(NC(=O)OC(C)(C)C)C(=O)NC(CCSC)C(N)=O` (stereo not drawn) (Boc-Ile-Met-NH2; configuration not given here), the T/C is 97 % of control under setting [13], 95 % of control under setting [14] and 89 % of control under setting [15].
Regarding `C=CCC1=C(CC)C(=O)c2ccccc2C1=O`, the T/C is 100 % of control under setting [13], 100 % of control under setting [14] and 111 % of control under setting [15].
With `COc1nc(C(O)C2OC(C)(C)OCC2O)[nH]c1C#N` (stereo not drawn), the T/C by setting is: under setting [10], 106 % of control; under setting [11], 102 % of control and 91 % of control; under setting [12], 103 % of control and 110 % of control.
As to `C[N+](C)=C1C=CC(=C2C=CSC=C2)C=C1`, the T/C (dose: 12.5 mg/kg/injection, schedule: Q01DX009 (ip), vehicle: saline) was 108 % of control and 112 % of control.
On to `O=C1C2CCC(C2)C1CN1CCCCC1` (stereo not drawn), for which the T/C (dose: 6.25 mg/kg/injection, schedule: Q01DX005 (ip), vehicle: saline with Tween-80) was 101 % of control; the T/C under setting [16] was 98 % of control; the T/C under setting [17] is 103 % of control.
For `COc1ccc(Cc2coc3cc(OC)cc(OC)c3c2=O)cc1`, the T/C runs as follows: (dose: 60.0 mg/kg/injection, schedule: Q01DX005 (ip), vehicle: saline with Tween-80) 98 % of control; (dose: 120.0 mg/kg/injection, schedule: Q01DX005 (ip), vehicle: saline with Tween-80) 97 % of control; (dose: 240.0 mg/kg/injection, schedule: Q01DX005 (ip), vehicle: saline with Tween-80) 94 % of control.
With `Cc1cccc(/C=N/Nc2cc(C)c3ccccc3n2)n1`, the T/C is, setting by setting: under setting [16], 100 % of control; under setting [17], 93 % of control; under setting [7], 101 % of control and 104 % of control.
On to `Cc1cccc(C)c1NC(=O)CCC(=O)O`, for which the T/C by setting is: under setting [13], 104 % of control; under setting [14], 102 % of control; under setting [15], 103 % of control.
As for `Cc1c(C)c2c(c3c1OC(C)(C)CC3)CCC(C)(C)O2`, the T/C was 88 % of control (dose: 50.0 mg/kg/injection, schedule: Q01DX009 (ip), vehicle: suspension in saline); 101 % of control (dose: 100.0 mg/kg/injection, schedule: Q01DX009 (ip), vehicle: suspension in saline); 100 % of control (dose: 200.0 mg/kg/injection, schedule: Q01DX009 (ip), vehicle: suspension in saline).
`O=C1CSc2nc3c(I)cc(I)cc3c(=O)n21`: the T/C runs as follows: under setting [13], 101 % of control; under setting [14], 100 % of control; under setting [15], 98 % of control.
As to `CCCC(=O)NC1C(Nc2ccc(S(=O)(=O)Nc3nc(C)cc(C)n3)cc2)OC(CO)C(O)C1O` (stereo not drawn), the T/C is, setting by setting: under setting [5], 97 % of control; under setting [6], 92 % of control; (dose: 200.0 mg/kg/injection, schedule: Q01DX005 (ip), vehicle: saline) 99 % of control.
On to `CCn1c(Cl)c(/C=N/Nc2ccccc2[N+](=O)[O-])c2cccc(/C=N\Nc3ccccc3[N+](=O)[O-])c21`, for which the T/C runs as follows: (dose: 100.0 mg/kg/injection, schedule: Q01DX001 (ip), vehicle: Klucel (hydroxypropylcellulose) (HPC)) 91 % of control; (dose: 200.0 mg/kg/injection, schedule: Q01DX001 (ip), vehicle: Klucel (hydroxypropylcellulose) (HPC)) 90 % of control; (dose: 400.0 mg/kg/injection, schedule: Q01DX001 (ip), vehicle: Klucel (hydroxypropylcellulose) (HPC)) 87 % of control.
For the compound `Cc1n[nH]c2ccc([N+](=O)[O-])cc2c1=O`, the T/C is, setting by setting: (dose: 6.25 mg/kg/injection, schedule: Q01DX009 (ip), vehicle: saline with Tween-80) 100 % of control; (dose: 12.5 mg/kg/injection, schedule: Q01DX009 (ip), vehicle: saline with Tween-80) 100 % of control; (dose: 25.0 mg/kg/injection, schedule: Q01DX009 (ip), vehicle: saline with Tween-80) 90 % of control; (dose: 50.0 mg/kg/injection, schedule: Q04DX003 (ip), vehicle: saline with Tween-80) 100 % of control; under setting [3], 95 % of control; under setting [4], 100 % of control.
For the compound `CNP1(NC)=N[P@@](NC)(N2CC2)=NP(NC)(N2CC2)=N1` (stereo partly drawn), the T/C was 102 % of control (dose: 1.87 mg/kg/injection, schedule: Q01DX005 (ip), vehicle: saline); 158 % of control and 185 % of control (dose: 7.5 mg/kg/injection, schedule: Q01DX005 (ip), vehicle: saline); 171 % of control and 227 % of control (dose: 15.0 mg/kg/injection, schedule: Q01DX005 (ip), vehicle: saline).
Take `N#CCSCC(N)C(=O)O` (stereo not drawn): the T/C is 103 % of control under setting [7], 105 % of control under setting [8] and 105 % of control under setting [9].

Values taken from PubChem BioAssay AID330 (DTP/NCI, 2004).
